Measured values: patent US20220088403A1, “Methods And Compositions For Treating Coronavirus” (NOVOCURE GMBH, priority 2020, published 2022)

How the values were obtained:
HCoV-229E [1] = assay: Extracellular viral amount (virions secreted to the media) by RT-qPCR, combined effect of TTFields with remdesivir; assay type: cell-based, HCoV-229E in human MRC-5 lung fibroblast cells; details: 48 hpi
HCoV-229E [2] = assay: Intracellular (cellular) viral load by RT-qPCR, combined effect of TTFields with remdesivir; assay type: cell-based, HCoV-229E in human MRC-5 lung fibroblast cells; details: for Calculated additive: Remdesivir alone multiplied by TTFields alone

## CCC(CC)COC(=O)[C@H](C)N[P@](=O)(OC[C@H]1O[C@@](C#N)(c2ccc3c(N)ncnn23)[C@H](O)[C@@H]1O)Oc1ccccc1 [remdesivir]
HCoV-229E [1]; 0.011 μM remdesivir alone
  reduction in number of virions secreted to the media: 31%
HCoV-229E [1]; 0.023 μM remdesivir alone
  reduction in number of virions secreted to the media: 75%
HCoV-229E [1]; high dose (0.023 μM) remdesivir with concomitant 150 kHz TTFields
  decrease in number of virions secreted to the media: 88%
HCoV-229E [1]; low dose (0.011 μM) remdesivir with concomitant 150 kHz TTFields
  decrease in number of virions secreted to the media: 68%
HCoV-229E [2]; 0.023 μM remdesivir alone, MRC-5 infected 3 hr, MOI 0.01, 48 hpi
  reduction of cellular viral load: 65%
HCoV-229E [2]; Human coronavirus 229E, MRC5, 0.011 μM remdesivir alone, MRC-5 infected 3 hr, MOI 0.01, 48 hpi
  inhibition at 0.011 µM: 27%
HCoV-229E [2]; Remdesivir concentration 0.011
  Remdesivir alone (viral load remaining relative to control): 73%
  Calculated additive: 42%
HCoV-229E [2]; Remdesivir concentration 0.011 with TTFields
  Measured combined (viral load remaining relative to control): 46%
HCoV-229E [2]; Remdesivir concentration 0.023
  Remdesivir alone (viral load remaining relative to control): 35%
  Calculated additive: 20%
HCoV-229E [2]; Remdesivir concentration 0.023 with TTFields
  Measured combined (viral load remaining relative to control): 15%
HCoV-229E [2]; high dose (0.023 μM) remdesivir with concomitant 150 kHz TTFields, 48 hpi
  reduction of viral load: 85%
HCoV-229E [2]; low dose (0.011 μM) remdesivir with concomitant 150 kHz TTFields, 48 hpi
  reduction of viral load: 54%
